For series [1] the following is noted: cited from earlier work.
The target of another series is T1, xanthine oxidase (Bos taurus, UniProt P80457).
T1 construct: purchased CALBIOCHEM 682151
Nature of the series: xanthine oxidase inhibition in vitro (UV-spectrophotometric uric acid formation at 290 nm from hypoxanthine). The series is classed as biochemical. Conditions: for Inhibition (%) of xanthine oxidase: 6 minutes, ambient temperature. As to the method: In the human in vivo metabolism the xanthine oxidase decomposes xanthine and hypoxanthine, respectively, to yield uric acid. This decomposition reaction can be perfectly simulated in vitro. For this purpose buffered solutions of (a) hypoxanthine, (b) xanthine oxidase and (c) the test substance are prepared. Solution (a) and (c) are mixed and filled into the cuvette of a UV-spectrophotometer. Solution (b) is then added into the cuvette. The UV-spectrophotometer is adjusted to 290 nm, i.e. to one of the main absorption lines of uric acid. Registration of the intensity of the 290 nm line is commenced immediately upon adding solution (b), i.e., upon adding the xanthine oxidase solution. The measurement is continued for exactly 6 minutes. For each test substance a certain number of measurements is carried out at varying concentrations of the test substance. The registered intensity values obtained after a certain time, here after 6 minutes, are compared to a standard registration containing as a solution (c) a blank buffer solution.
For the present measurements the UV-spectrophotometer used is a ZEISS PM Q II.
Solution (a) is 1 ml hypoxanthine puriss (FLUKA No. 56700) dissolved in a concentration of 1.5×10^-4 moles/liter in a 0.067 molar phosphate buffer solution having a pH of 7.4.
Solution (b) is 1 ml xanthine oxidase (CALBIOCHEM No. 682151) having a specific activity of 2.65 I.U./ml at 30° C., and is diluted in a ratio of 1:200 in the same phosphate buffer as used in solution (a).
Solution (c) is 1 ml of blank phosphate buffer for controls (standards) and a solution of the test substance dissolved in said phosphate buffer in varying concentrations, respectively.
The spectrophotometric measurements are carried out at ambient temperature.

pIC50: −log10 of the molar value. Like-named read-outs stand apart in the source and are kept apart here.

T1 sequence (P80457 whole entry): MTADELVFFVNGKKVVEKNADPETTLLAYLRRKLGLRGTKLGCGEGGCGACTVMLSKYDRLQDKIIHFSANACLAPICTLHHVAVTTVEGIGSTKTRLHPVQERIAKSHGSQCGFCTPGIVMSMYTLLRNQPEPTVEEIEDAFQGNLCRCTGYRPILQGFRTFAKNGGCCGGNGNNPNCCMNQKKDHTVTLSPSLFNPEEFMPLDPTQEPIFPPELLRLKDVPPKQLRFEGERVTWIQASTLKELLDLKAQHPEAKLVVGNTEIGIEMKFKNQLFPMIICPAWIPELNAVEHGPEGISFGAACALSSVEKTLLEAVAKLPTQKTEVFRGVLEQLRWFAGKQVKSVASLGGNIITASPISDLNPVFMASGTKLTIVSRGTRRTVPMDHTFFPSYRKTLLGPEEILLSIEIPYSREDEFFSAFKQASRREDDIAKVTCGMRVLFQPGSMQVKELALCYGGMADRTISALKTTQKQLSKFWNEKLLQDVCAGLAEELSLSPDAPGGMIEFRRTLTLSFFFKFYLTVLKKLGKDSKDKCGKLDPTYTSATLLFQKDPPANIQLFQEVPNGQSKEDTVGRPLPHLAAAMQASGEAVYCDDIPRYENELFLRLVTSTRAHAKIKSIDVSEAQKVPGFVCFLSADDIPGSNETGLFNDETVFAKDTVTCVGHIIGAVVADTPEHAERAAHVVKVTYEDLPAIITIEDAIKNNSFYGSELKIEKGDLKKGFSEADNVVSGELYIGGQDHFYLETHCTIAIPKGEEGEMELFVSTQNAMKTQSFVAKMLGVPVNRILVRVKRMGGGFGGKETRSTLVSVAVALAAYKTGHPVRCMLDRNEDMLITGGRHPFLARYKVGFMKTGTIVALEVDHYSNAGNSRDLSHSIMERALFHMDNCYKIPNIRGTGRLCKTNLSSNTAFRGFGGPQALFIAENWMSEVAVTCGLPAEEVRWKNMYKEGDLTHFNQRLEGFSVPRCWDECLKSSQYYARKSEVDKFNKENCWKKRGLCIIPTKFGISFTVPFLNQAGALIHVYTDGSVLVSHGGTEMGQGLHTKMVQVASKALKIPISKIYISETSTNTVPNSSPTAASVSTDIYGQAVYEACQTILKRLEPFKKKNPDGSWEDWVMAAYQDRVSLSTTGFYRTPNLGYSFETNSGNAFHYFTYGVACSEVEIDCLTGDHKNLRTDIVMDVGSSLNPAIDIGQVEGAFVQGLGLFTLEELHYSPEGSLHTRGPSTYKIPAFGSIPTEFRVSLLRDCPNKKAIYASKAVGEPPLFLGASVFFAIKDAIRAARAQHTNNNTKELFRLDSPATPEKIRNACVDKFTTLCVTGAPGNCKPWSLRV

Take `Oc1ncnc2[nH]ncc12` [allopurinol]: in series [1] (300 mg/d allopurinol orally in one single portion), the plasma level is 2000 ng/mL.
`CCCC1C(=O)N2C(N(C)C)=Nc3ccc(C)cc3N2C1=O` (stereo not shown) [azapropazone, 3-dimethylamino-7-methyl-1,2-(n-propylmalonyl)-1,2-dihydro-1,2,4-benzotriazine dihydrate]: the “Inhibition (%) of xanthine oxidase” value at xanthine oxidase (1.25 × 10^-5 moles/liter azapropazone, pH 7.4) amounted to 20%; at xanthine oxidase (2.50 × 10^-5 moles/liter azapropazone, pH 7.4) it was 35%; on xanthine oxidase (5.00 × 10^-5 moles/liter azapropazone, pH 7.4), 55%. Further, the pIC50 (usually −log10 of the IC50, conventionally taken in molar units) was 4.35 against xanthine oxidase (50% inhibition concentration (xanthine oxidase), IC50 expressed in μg/ml) and 4.40 against xanthine oxidase (50% inhibitive concentration IC50 (xanthine oxidase), interpolated from inhibition values, hypoxanthine substrate, pH 7.4). In addition, the plasma level in series [1] (1000 mg/d azapropazone orally in one single portion) was 80800 ng/mL.

The values above are taken from patent US4305942A, “Xanthine oxidase inhibitor and therapeutic treatment using same” (Siegfried Aktiengesellschaft, priority 1979, dated 1981).
